# Experimental data published in patent US7530196B2, “Method for improving plant growth by application of a mixture of sulfur and complexing agent” (BASF Aktiengesellschaft, priority 2001, dated 2009).
# Tests used:
# Chinese leaves [1] = assay: Container experiment with Chinese leaves: growth (fresh-matter yield); assay type: in vivo, Chinese leaves "Kasumi"
# Protocol: (§1) Experimental Set-Up: Container Experiment With Chinese Leaves • 1. without addition • 2. 8 mg S/pot/week • 3. 80 mg S/pot/week • 4. 2 mg sodium lignosulfonate/pot/week • 5. 20 mg sodium lignosulfonate/pot/week • 6. 10 mg mixture of 80% by weight sulfur and 20% by weight sodium lignosulfonate/pot/week • 7. 100 mg mixture of 80% by weight sulfur and 20% by weight sodium lignosulfonate/pot/week Method: Plant Species: Chinese leaves “Kasumi”, sown into P-soil in multi-cell trays, age at pricking out time into experimental containers: approx. 14 days; the same containers are planted twice. Soil from Ruchheim, loam, pH 7.4, mixed with quartz sand (for retaining the structural stability during the container experiment). PE pots/15, approx. 1 l substrate (1.5 kg). Greenhouse, 25° C., supplementary lighting suitable for assimilation. Plant food 15+10+15+2 with trace elements without chelating agent (LAB 2411D; 0.5 g/container/week). Using a syringe and cannula into the soil at a depth of approx. 1 cm to simulate trickle irrigation conditions. The additions were applied in one application weekly via the cannula. 10 mg of mixture M according to the invention/container/week correspond to approx. 5 kg/ha.
# Chinese leaves [2] = assay: Container experiment with Chinese leaves: mineral contents in leaves; assay type: in vivo, Chinese leaves "Kasumi"; conditions: plant batch 1; for Iron content in ppm / Manganese content in ppm: Table 3
# Protocol: as §1
# [3] = plant batch 1, S 8 mg, lignosulfonate 2 mg, mixture M 10 mg per pot/week
# [4] = plant batch 1, S 80 mg, lignosulfonate 20 mg, mixture M 100 mg per pot/week
# [5] = plant batch 2, S 8 mg, lignosulfonate 2 mg, mixture M 10 mg per pot/week
# [6] = plant batch 2, S 80 mg, lignosulfonate 20 mg, mixture M 100 mg per pot/week
# [7] = S 8 mg, lignosulfonate 2 mg, mixture M 10 mg
# [8] = S 80 mg, lignosulfonate 20 mg, mixture M 100 mg
structure (smiles),measurement,setting,value
"S1SSSSSSS1 [Sulfur, sulfur]",Effect on growth (in words),"Chinese leaves [1]; increasing additions, in particular in the first batch of plants",no growth-promoting effect
same,Fresh-matter yield,Chinese leaves [1]; [3],106 g/container
same,Fresh-matter yield % of untreated,Chinese leaves [1]; [3],97 % of untreated
same,Fresh-matter yield,Chinese leaves [1]; [4],108 g/container
same,Fresh-matter yield % of untreated,Chinese leaves [1]; [4],99 % of untreated
same,Fresh-matter yield,Chinese leaves [1]; [5],67 g/container
same,Fresh-matter yield % of untreated,Chinese leaves [1]; [5],96 % of untreated
same,Fresh-matter yield,Chinese leaves [1]; [6],68 g/container
same,Fresh-matter yield % of untreated,Chinese leaves [1]; [6],97 % of untreated
same,Iron content in ppm,Chinese leaves [2]; [7],140 ppm
same,Manganese content in ppm,Chinese leaves [2]; [7],66 ppm
same,Iron content in ppm,Chinese leaves [2]; [8],174 ppm
same,Manganese content in ppm,Chinese leaves [2]; [8],67 ppm
same,Fe content in leaves,Chinese leaves [2]; [7],140 ppm in DM
same,Iron content in % of untreated,Chinese leaves [2]; [7],127 % of untreated
same,K content in leaves,Chinese leaves [2]; [7],5.23 % in DM
same,Manganese content in % of untreated,Chinese leaves [2]; [7],101 % of untreated
same,Mg content in leaves,Chinese leaves [2]; [7],0.24 % in DM
same,Mn content in leaves,Chinese leaves [2]; [7],66 ppm in DM
same,N content in leaves,Chinese leaves [2]; [7],3.57 % in DM
same,P content in leaves,Chinese leaves [2]; [7],0.46 % in DM
same,Fe content in leaves,Chinese leaves [2]; [8],174 ppm in DM
same,Iron content in % of untreated,Chinese leaves [2]; [8],158 % of untreated
same,K content in leaves,Chinese leaves [2]; [8],5.57 % in DM
same,Manganese content in % of untreated,Chinese leaves [2]; [8],103 % of untreated
same,Mg content in leaves,Chinese leaves [2]; [8],0.25 % in DM
same,Mn content in leaves,Chinese leaves [2]; [8],67 ppm in DM
same,N content in leaves,Chinese leaves [2]; [8],3.86 % in DM
same,P content in leaves,Chinese leaves [2]; [8],0.50 % in DM
